The values below come from patent US8106031B2, “Hydrolytically-resistant boron-containing therapeutics and methods of use” (Anacor Pharmaceuticals, Inc., priority 2006, dated 2012).

Converted amounts (≈) assume the structure as drawn. Like-named read-outs stand apart in the source and are kept apart here.

One series deals with Cryptococcus neoformans. The series is described as follows: MIC against C. neoformans (NCCLS broth dilution). Format: cell-based. To be noted: for MIC: Cryptococcus neoformans, read-out: Minimum inhibitory concentration, C. neoformans. From the text:
(§1) To determine the antifungal activity of these compounds we screened for their minimum inhibitory concentrations (MIC) against the major dermatophytes that cause onychomycosis, T. rubrum and T. mentagrophytes, and against the yeasts and molds C. albicans, C. neoformans and A. fumigatus to test for their broad spectrum activity. The antifungal agent ciclopirox, currently in use for the topical treatment of onychomycosis, was used as a reference.
(§2) All MIC testing against Trichophyton rubrum, Trichophyton mentagrophytes, Candida albicans, Cryptococcus neoformans and Aspergillus fumigatus were determined following the National Committee for Clinical Laboratory Standards (NCCLS) guidelines for antimicrobial testing of yeasts and filamentous fungi.^i,ii
(§3) Two-fold serial dilutions of the test compounds were prepared in 96-well plates. […] Pfaller M A, Chaturvedi V, Espinel-Ingroff A, Ghannoum M A, Gosey L L, Odds F C, Rex J H, Rinaldi M G, Sheehan D J, Walsh T J, Warnock D W. NCCLS publication M27-A2—Reference Method for Broth Dilution Antifungal Susceptibility Testing of Yeasts; Approved Standard—Second Edition. […] Pfaller M A, Chaturvedi V, Espinel-Ingroff A, Ghannoum M A, Gosey L L, Odds F C, Rex J H, Rinaldi M G, Sheehan D J, Walsh T J, Warnock D W. NCCLS publication M38-A—Reference Method for Broth Dilution Antifungal Susceptibility Testing of Filamentous Fungi; Approved Standard.
Background: Broth dilution looks for growth in wells or tubes with falling amounts of substance.

The subject of another series is Aspergillus fumigatus. The series is described as follows: MIC against A. fumigatus (NCCLS broth dilution). To be noted: for MIC: Aspergillus fumigatus, read-out: Minimum inhibitory concentration, A. fumigatus. Format: cell-based.
Source text: as §1, §2, §3

Another series deals with Candida albicans. The series is described as follows: MIC against C. albicans (NCCLS broth dilution). Format: cell-based. To be noted: for MIC: Candida albicans, read-out: Minimum inhibitory concentration, C. albicans.
Source text: as §1, §2, §3

A further series deals with Trichophyton rubrum. The series is described as follows: MIC against T. rubrum (NCCLS broth dilution). It is filed as cell-based. To be noted: for MIC: Trichophyton rubrum, read-out: Minimum inhibitory concentration, T. rubrum.
Source text: as §1, §2, §3

The subject of series [1] is Trichophyton mentagrophytes. The series is described as follows: MIC against T. mentagrophytes (NCCLS broth dilution). It is filed as cell-based. To be noted: for MIC: Trichophyton mentagrophytes, read-out: Minimum inhibitory concentration, T. mentagrophytes.
Source text: as §1, §2, §3

Where [2] appears, read: Table 1, over 90% reduction of growth, 24-168 h at 35° C.

Regarding `OB1OCc2c(F)cccc21` [19l, 1,3-Dihydro-4-fluoro-1-hydroxy-2,1-benzoxaborole], the MIC in the series on Cryptococcus neoformans (Table 3, 1-hydroxy series (19)) stood at 32 µg/mL (≈ 211 µM); in the series with Aspergillus fumigatus (Table 3, 1-hydroxy series (19)), 32 µg/mL (≈ 211 µM); in the series on Candida albicans (Table 3, 1-hydroxy series (19)), 64 µg/mL (≈ 421 µM); in the series with Trichophyton rubrum (Table 3, 1-hydroxy series (19)), 16 µg/mL (≈ 105 µM); in series [1] (Table 3, 1-hydroxy series (19)) it was 16 µg/mL (≈ 105 µM).
For the compound `OB1OCc2cc(Cl)ccc21` [19d, 5-Chloro-1,3-dihydro-1-hydroxy-2,1-benzoxaborole], the MIC with Cryptococcus neoformans (Table 3, 1-hydroxy series (19)) worked out at 2 µg/mL (≈ 11.9 µM); in the series with Aspergillus fumigatus (Table 3, 1-hydroxy series (19)), 1 µg/mL (≈ 5.94 µM); in the series on Candida albicans (Table 3, 1-hydroxy series (19)) it was 1 µg/mL (≈ 5.94 µM); in the series on Trichophyton rubrum (Table 3, 1-hydroxy series (19)), 1 µg/mL (≈ 5.94 µM); in series [1] (Table 3, 1-hydroxy series (19)) it was 2 µg/mL (≈ 11.9 µM).
`OB1OCc2cccc(F)c21` [19n, 1,3-Dihydro-7-fluoro-1-hydroxy-2,1-benzoxaborolane]: the MIC in the series with Cryptococcus neoformans (Table 3, 1-hydroxy series (19)) amounted to 32 µg/mL (≈ 211 µM); with Aspergillus fumigatus (Table 3, 1-hydroxy series (19)), 4 µg/mL (≈ 26.3 µM); with Candida albicans (Table 3, 1-hydroxy series (19)), 32 µg/mL (≈ 211 µM); with Trichophyton rubrum (Table 3, 1-hydroxy series (19)), 16 µg/mL (≈ 105 µM); in series [1] (Table 3, 1-hydroxy series (19)), 16 µg/mL (≈ 105 µM).
`Fc1ccc(B2OCc3cc(F)ccc32)cc1` [9h, 1,3-Dihydro-5-fluoro-1-(4-fluorophenyl)-2,1-benzoxaborole] registered a melting point of 75 to 77 °C. Further, in the series with Cryptococcus neoformans (Table 2, 1-phenyl series (9)), the MIC was found to be 1 µg/mL (≈ 4.35 µM). In addition, in the series with Aspergillus fumigatus (Table 2, 1-phenyl series (9)), the MIC is 2 µg/mL (≈ 8.69 µM). For the same compound, the MIC with Candida albicans (Table 2, 1-phenyl series (9)) turned out to be 1 µg/mL (≈ 4.35 µM). Also, the MIC in the series with Trichophyton rubrum (Table 2, 1-phenyl series (9)) came to 4 µg/mL (≈ 17.4 µM). The MIC in series [1] (Table 2, 1-phenyl series (9)) came out at 4 µg/mL (≈ 17.4 µM).
For `Cc1ccc2c(c1)COB2O` [19e, 1,3-Dihydro-1-hydroxy-5-methyl-2,1-benzoxaborole], the MIC turned out to be 8 µg/mL (≈ 54.1 µM) with Cryptococcus neoformans (Table 3, 1-hydroxy series (19)); 2 µg/mL (≈ 13.5 µM) in the series on Aspergillus fumigatus (Table 3, 1-hydroxy series (19)); 2 µg/mL (≈ 13.5 µM) in the series with Candida albicans (Table 3, 1-hydroxy series (19)); 8 µg/mL (≈ 54.1 µM) with Trichophyton rubrum (Table 3, 1-hydroxy series (19)); 4 µg/mL (≈ 27 µM) in series [1] (Table 3, 1-hydroxy series (19)).
In the case of `Fc1ccc2c(c1)COB2c1ccoc1` [compound 12, 1,3-Dihydro-5-fluoro-1-(furan-3-yl)-2,1-benzoxaborole], the MIC (in the series on Cryptococcus neoformans (setting [2]); with Aspergillus fumigatus (setting [2]); in the series with Candida albicans (setting [2]); in the series with Trichophyton rubrum (setting [2]); in series [1] (setting [2])) was 4 µg/mL (≈ 19.8 µM) each time.
Take `OB1OCc2ccc(F)cc21` [19m, 1,3-Dihydro-6-fluoro-1-hydroxy-2,1-benzoxaborole]: the MIC in the series on Cryptococcus neoformans (Table 3, 1-hydroxy series (19)) is 32 µg/mL (≈ 211 µM); in the series with Aspergillus fumigatus (Table 3, 1-hydroxy series (19)), 8 µg/mL (≈ 52.7 µM); with Candida albicans (Table 3, 1-hydroxy series (19)), 16 µg/mL (≈ 105 µM); in the series on Trichophyton rubrum (Table 3, 1-hydroxy series (19)), 16 µg/mL (≈ 105 µM); in series [1] (Table 3, 1-hydroxy series (19)), 32 µg/mL (≈ 211 µM).
As to `OB1OCc2cc(F)ccc21` [19b, 1,3-Dihydro-5-fluoro-1-hydroxy-2,1-benzoxaborole], the “fold increase in activity against C. neoformans” value in the series on Cryptococcus neoformans (19a relative to 9a, 19b relative to 9b) came to 8 fold. Also, the MIC turned out to be 0.25 µg/mL (≈ 1.65 µM) in the series on Cryptococcus neoformans (setting [2]); 0.25 µg/mL (≈ 1.65 µM) in the series with Aspergillus fumigatus (setting [2]); 0.5 µg/mL (≈ 3.29 µM) in the series with Candida albicans (setting [2]); 1 µg/mL (≈ 6.58 µM) in the series on Trichophyton rubrum (setting [2]); 1 µg/mL (≈ 6.58 µM) in series [1] (setting [2]). Moreover, in the series on Cryptococcus neoformans (Table 3, 1-hydroxy series (19)), the “Minimum inhibitory concentration, C. neoformans” value is 0.25 µg/mL (≈ 1.65 µM). Also, the “Minimum inhibitory concentration, A. fumigatus” value in the series on Aspergillus fumigatus (Table 3, 1-hydroxy series (19)) came to 0.25 µg/mL (≈ 1.65 µM). Further, in the series on Candida albicans (Table 3, 1-hydroxy series (19)), the “Minimum inhibitory concentration, C. albicans” value worked out at 0.5 µg/mL (≈ 3.29 µM). For the same compound, the “Minimum inhibitory concentration, T. rubrum” value with Trichophyton rubrum (Table 3, 1-hydroxy series (19)) is 1 µg/mL (≈ 6.58 µM). Moreover, in series [1] (Table 3, 1-hydroxy series (19)), the “Minimum inhibitory concentration, T. mentagrophytes” value stood at 1 µg/mL (≈ 6.58 µM).
“1,3-Dihydro-1-hydroxy-5-trifluoromethoxy-benzoxaborole [19i]”: the “Minimum inhibitory concentration, C. neoformans” value in the series with Cryptococcus neoformans (Table 3, 1-hydroxy series (19)) is over 64 µg/mL. Besides, the “Minimum inhibitory concentration, A. fumigatus” value in the series on Aspergillus fumigatus (Table 3, 1-hydroxy series (19)) was over 64 µg/mL. Besides, the “Minimum inhibitory concentration, C. albicans” value in the series with Candida albicans (Table 3, 1-hydroxy series (19)) is over 64 µg/mL. The “Minimum inhibitory concentration, T. rubrum” value in the series on Trichophyton rubrum (Table 3, 1-hydroxy series (19)) was determined as 64 µg/mL. Further, the “Minimum inhibitory concentration, T. mentagrophytes” value in series [1] (Table 3, 1-hydroxy series (19)) was 64 µg/mL.
For the compound “1,3-Dihydro-1-hydroxy-2,1-naphtho[2,1-d]oxaborole [19j]”, in the series on Cryptococcus neoformans (Table 3, 1-hydroxy series (19)), the “Minimum inhibitory concentration, C. neoformans” value is 32 µg/mL. In addition, in the series on Aspergillus fumigatus (Table 3, 1-hydroxy series (19)), the “Minimum inhibitory concentration, A. fumigatus” value is 32 µg/mL. Further, in the series with Candida albicans (Table 3, 1-hydroxy series (19)), the “Minimum inhibitory concentration, C. albicans” value worked out at 32 µg/mL. For the same compound, the “Minimum inhibitory concentration, T. rubrum” value in the series on Trichophyton rubrum (Table 3, 1-hydroxy series (19)) came out at 4 µg/mL. The “Minimum inhibitory concentration, T. mentagrophytes” value in series [1] (Table 3, 1-hydroxy series (19)) amounted to 2 µg/mL.
`Fc1cccc(B2OCc3ccccc32)c1` [9d, 1,3-Dihydro-1-(3-fluorophenyl)-2,1-benzoxaborole]: the MIC in the series on Cryptococcus neoformans (Table 2, 1-phenyl series (9)) came out at 4 µg/mL (≈ 18.9 µM); with Aspergillus fumigatus (Table 2, 1-phenyl series (9)) it was 8 µg/mL (≈ 37.7 µM); with Candida albicans (Table 2, 1-phenyl series (9)), 4 µg/mL (≈ 18.9 µM); in the series on Trichophyton rubrum (Table 2, 1-phenyl series (9)), 8 µg/mL (≈ 37.7 µM); in series [1] (Table 2, 1-phenyl series (9)), 16 µg/mL (≈ 75.5 µM).

As a reminder, the melting point is the temperature, or range, at which the solid turns liquid.
